Assay results as given in patent US11420961B2, “Heterocyclic compounds” (Hoffmann-La Roche Inc., priority 2017, dated 2022).

target: T1, MAGL (recombinant wild-type) (Homo sapiens, UniProt Q99685); experiment: 4-NPA assay: MAGL inhibitory activity by hydrolysis of 4-nitrophenylacetate, absorbance at 405 nm; format: biochemical; details: 4-NPA assay (values without footnote [a])
T1 sequence (Q99685 1-303): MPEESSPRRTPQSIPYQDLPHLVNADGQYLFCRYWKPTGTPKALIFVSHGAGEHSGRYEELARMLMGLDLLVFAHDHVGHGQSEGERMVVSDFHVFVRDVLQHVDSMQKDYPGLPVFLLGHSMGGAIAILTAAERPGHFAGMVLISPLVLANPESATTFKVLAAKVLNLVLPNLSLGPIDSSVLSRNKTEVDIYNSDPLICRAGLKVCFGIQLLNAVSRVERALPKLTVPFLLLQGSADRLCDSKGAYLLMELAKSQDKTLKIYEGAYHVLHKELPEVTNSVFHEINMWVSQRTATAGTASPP
Method: Compounds were profiled for MAGL inhibitory activity by measuring the enzymatic activity of MAGL by following the hydrolysis of 4-nitorphenylacetate resulting in 4-nitrophenol, which absorbs at 405-412 nm (G. G. Muccioli, G. Labar, D M. Lambert, Chem. Bio. Chem. 2008, 9, 2704-2710). This assay is hereinafter abbreviated “4-NPA assay”.
The 4-NPA assay was carried out in 384 well assay plates (black with clear bottom, non-binding surface treated, Corning Ref. 3655) in a total volume of 40 μL. Compound dilutions were made in 100% DMSO (VWR Chemicals 23500.297) in a polypropylene plate in 3-fold dilution steps to give a final concentration range in the assay from 25 μM to 1.7 nM. 1 μL compound dilutions (100% DMSO) were added to 19 μL MAGL (recombinant wild-type) in assay buffer (50 mM TRIS (GIBCO, 15567-027), 1 mM EDTA (Fluka, 03690-100 ml)). The plate was shaked for 1 min at 2000 rpm (Variomag Teleshake) and then incubated for 15 min at RT. To start the reaction, 20 μL 4-Nitrophenlyacetate (Sigma N-8130) in assay buffer with 6% EtOH was added. The final concentrations in the assay were 1 nM MAGL and 300 μM 4-Nitrophenylacetate. After shaking (1 min, 2000 rpm) and 5 min incubation at RT, the absorbance at 405 nm was measured for a first time (Molecular Devices, SpectraMax Paradigm). A second measurement was then done after incubation for 80 min at RT. From the two measurements, the slope was calculated by substracting the first from the second measurement.

In order of falling IC50:
1. COc1cc(N2CCN(C(=O)c3ccc4c(c3)NC(=O)CO4)CC2)cc(OC)c1OC [Example 92, 6-[4-(3,4,5-trimethoxyphenyl)piperazine-1-carbonyl]-4H-1,4-benzoxazin-3-one]  2740 nM
2. O=C1COc2ccc(C(=O)N3CCN(c4nsc5ccccc45)CC3)cc2N1 [Example 91, 6-[4-(1,2-benzothiazol-3-yl)piperazine-1-carbonyl]-4H-1,4-benzoxazin-3-one]  2400 nM
3. O=C1COc2ccc(C(=O)N3CCN(c4cc(C(F)(F)F)ccn4)CC3)cc2N1 [Example 88, 6-[4-[4-(trifluoromethyl)-2-pyridyl]piperazine-1-carbonyl]-4H-1,4-benzoxazin-3-one]  1480 nM
4. O=C1COc2ccc(C(=O)N3CCN(c4cc(Cl)cc(Cl)c4)CC3)cc2N1 [Example 87, 6-[4-(3,5-dichlorophenyl)piperazine-1-carbonyl]-4H-1,4-benzoxazin-3-one]  1320 nM
5. O=C1COc2ccc(C(=O)N3CCC(c4cc(-c5ccc(Cl)cc5)[nH]n4)CC3)cc2N1 [Example 44, 6-[4-[5-(4-chlorophenyl)-1H-pyrazol-3-yl]piperidine-1-carbonyl]-4H-1,4-benzoxazin-3-one]  390 nM
6. O=C1COc2ccc(C(=O)N3CCC(c4nn(CCO)c5cc(F)ccc45)CC3)cc2N1 [Example 37, 6-[4-[6-fluoro-1-(2-hydroxyethyl)indazol-3-yl]piperidine-1-carbonyl]-4H-1,4-benzoxazin-3-one]  350 nM
7. O=C1COc2ccc(C(=O)N3CCC(c4n[nH]c5ccccc45)CC3)cc2N1 [Example 36, 6-[4-(1H-indazol-3-yl)piperidine-1-carbonyl]-4H-1,4-benzoxazin-3-one]  158 nM
8. O=C1COc2ccc(C(=O)N3CCC(c4noc5cc(C(F)(F)F)ccc45)CC3)cc2N1 [Example 50, 6-[4-[6-(trifluoromethyl)-1,2-benzoxazol-3-yl]piperidine-1-carbonyl]-4H-1,4-benzoxazin-3-one]  150 nM
9. O=C1COc2ccc(C(=O)N3CCC(c4cn(C5CC5)c5cc(Cl)ccc45)CC3)cc2N1 [Example 34, 6-[4-(6-chloro-1-cyclopropylindol-3-yl)piperidine-1-carbonyl]-4H-1,4-benzoxazin-3-one]  36 nM
10. O=C1COc2ccc(C(=O)N3CCC(c4c[nH]c5cc(C(F)(F)F)ccc45)CC3)cc2N1 [Example 25, 6-[4-[6-(trifluoromethyl)-1H-indol-3-yl]piperidine-1-carbonyl]-4H-1,4-benzoxazin-3-one]  29 nM
11. O=C1COc2ccc(C(=O)N3CCC(C(O)(c4ccccc4)c4ccccc4)CC3)cc2N1 [Example 5, 6-[4-[Hydroxy(diphenyl)methyl]piperidine-1-carbonyl]-4H-1,4-benzoxazin-3-one]  15 nM
12. O=C1COc2ccc(C(=O)N3CCC(c4c[nH]c5cc(F)ccc45)CC3)cc2N1 [Example 23, 6-[4-(6-fluoro-1H-indol-3-yl)piperidine-1-carbonyl]-4H-1,4-benzoxazin-3-one]  10.6 nM
13. COc1ccc(C(c2cccnc2)C2CCN(C(=O)c3ccc4c(c3)NC(=O)CO4)CC2)cc1OC (single isomer, unassigned) [Example 123, 6-[4-[(S or R)-(3,4-Dimethoxyphenyl)-(3-pyridyl)methyl]piperidine-1-carbonyl]-4H-1,4-benzoxazin-3-one]  8.7 nM
14. O=C1COc2ccc(C(=O)N3CCC(c4c[nH]c5ccc(F)cc45)CC3)cc2N1 [Example 22, 6-[4-(5-fluoro-1H-indol-3-yl)piperidine-1-carbonyl]-4H-1,4-benzoxazin-3-one]  8.27 nM
15. COc1ccc(C(c2ccncc2)C2CCN(C(=O)c3ccc4c(c3)NC(=O)CO4)CC2)cc1OC (single isomer, unassigned) [Example 125, 6-[4-[(S or R)-(3,4-Dimethoxyphenyl)-(4-pyridyl)methyl]piperidine-1-carbonyl]-4H-1,4-benzoxazin-3-one]  7.7 nM
16. O=C1COc2ccc(C(=O)N3CCC(C(c4ccc(F)cc4)c4cccc(F)n4)CC3)cc2N1 (single isomer, unassigned) [Example 118, 6-[4-[(S or R)-(4-fluorophenyl)-(6-fluoro-2-pyridyl)methyl]piperidine-1-carbonyl]-4H-1,4-benzoxazin-3-one]  4.8 nM
17. O=C1COc2ccc(C(=O)N3CCC(C(c4ccc(F)cc4)c4ccc(F)nc4)CC3)cc2N1 (single isomer, unassigned) [Example 114, 6-[4-[(S or R)-(4-Fluorophenyl)-(6-fluoro-3-pyridyl)methyl]piperidine-1-carbonyl]-4H-1,4-benzoxazin-3-one]  4 nM
18. O=C1COc2ccc(C(=O)N3CCC(=C(c4ccc(F)cc4)c4ccc(OCCF)cc4)CC3)cc2N1 [Example 93, 6-[4-[[4-(2-Fluoroethoxy)phenyl]-(4-fluorophenyl)methylene]piperidine-1-carbonyl]-4H-1,4-benzoxazin-3-one]  3.5 nM
19. Cn1cc(C2CCN(C(=O)c3ccc4c(c3)NC(=O)CO4)CC2)c2cc(Cl)c(F)cc21 [Example 27, 6-[4-(5-chloro-6-fluoro-1-methylindol-3-yl)piperidine-1-carbonyl]-4H-1,4-benzoxazin-3-one]  2.8 nM
20. COc1ccc([C@H](c2ccccc2)C2CCN(C(=O)c3ccc4c(c3)NC(=O)CO4)CC2)cc1 (single isomer, unassigned) [Example 10]  1.9 nM
21. O=C1COc2ccc(C(=O)N3CCC(C(c4ccccc4)c4cccnc4F)CC3)cc2N1 (stereo not shown) [Example 78, 6-[4-[(2-fluoro-3-pyridyl)-phenyl-methyl]piperidine-1-carbonyl]-4H-1,4-benzoxazin-3-one]  1.84 nM
22. O=C1COc2ccc(C(=O)N3CCC([C@@H](c4ccc(F)cc4)c4cccc(OCCF)c4)CC3)cc2N1 [Example 77, 6-[4-[(S)-[3-(2-fluoroethoxy)phenyl]-(4-fluorophenyl)methyl]piperidine-1-carbonyl]-4H-1,4-benzoxazin-3-one]  1.66 nM
23. COc1ccc(C(c2ccc(F)cc2)C2CCN(C(=O)c3ccc4c(c3)NC(=O)CO4)CC2)cc1OC (single isomer, unassigned) [Example 105, 6-[4-[(R or S)-(3,4-Dimethoxyphenyl)-(4-fluorophenyl)methyl]piperidine-1-carbonyl]-4H-1,4-benzoxazin-3-one]  0.8 nM
24. O=C1COc2ccc(C(=O)N3CCC(C(c4ccccc4)c4ccc(OCCF)cc4)CC3)cc2N1 (stereo not shown) [Example 73, 6-[4-[[4-(2-fluoroethoxy)phenyl]-penyl-methyl]piperidine-1-carbonyl]-4H-1,4-benzoxazin-3-one]  0.73 nM
25. COc1cccc(C(c2ccc(F)cc2)C2CCN(C(=O)c3ccc4c(c3)NC(=O)CO4)CC2)c1 (single isomer, unassigned) [Example 120, 6-[4-[(R or S)-(4-Fluorophenyl)-(3-methoxyphenyl)methyl]piperidine-1-carbonyl]-4H-1,4-benzoxazin-3-one]  0.6 nM
26. O=C1COc2ccc(C(=O)N3CCC([C@@H](c4ccccc4)c4cccc(F)c4)CC3)cc2N1 [Example 74, 6-[4-[(S)-(3-fluorophenyl)-phenyl-methyl]piperidine-1-carbonyl]-4H-1,4-benzoxazin-3-one]  0.56 nM
27. Cc1cccc(C(c2ccccc2)C2CCN(C(=O)c3ccc4c(c3)NC(=O)CO4)CC2)c1 (stereo not shown) [Example 59, 6-[4-[m-tolyl(phenyl)methyl]piperidine-1-carbonyl]-4H-1,4-benzoxazin-3-one]  0.5 nM
28. O=C1COc2ccc(C(=O)N3CCC(C(c4ccc(F)cc4)c4cccc(OCCOCCF)c4)CC3)cc2N1 (single isomer, unassigned) [Example 94, 6-[4-[(S or R)-[3-[2-(2-Fluoroethoxy)ethoxy]phenyl]-(4-fluorophenyl)methyl]piperidine-1-carbonyl]-4H-1,4-benzoxazin-3-one]  0.4 nM
29. COc1cccc(C(c2ccc(F)cc2)C2CCN(C(=O)c3ccc4c(c3)NC(=O)CO4)CC2)c1 (single isomer, unassigned) [Example 121, 6-[4-[(S or R)-(4-Fluorophenyl)-(3-methoxyphenyl)methyl]piperidine-1-carbonyl]-4H-1,4-benzoxazin-3-one]  0.4 nM
30. COc1ccc([C@@H](c2ccccc2)C2CCN(C(=O)c3ccc4c(c3)NC(=O)CO4)CC2)cc1OC (single isomer, unassigned) [Example 9]  0.3 nM
31. O=C1COc2ccc(C(=O)N3CCC(C(c4ccccc4)c4ccc(OCCOCCF)cc4)CC3)cc2N1 (single isomer, unassigned) [Example 96, 6-[4-[(S or R)-[4-[2-(2-Fluoroethoxy)ethoxy]phenyl]-phenyl-methyl]piperidine-1-carbonyl]-4H-1,4-benzoxazin-3-one]  0.2 nM
